Where a chain is given by its changes, count along the chain named. Names and notes keep the numbering of the source. Where two headings read alike, the source gives them in different places.
Assays:
[1] = molecular target: BAAT-3-HP dehydrogenase system: Streptomyces avermitilis BAAT variant BAAT5-9 (P3H, S24T, D110N, F113L, A133T), SEQ ID NO: 19, coupled with P. putida 3-HP dehydrogenase (PpmmsB31), SEQ ID NO: 27 (Streptomyces avermitilis, UniProt Q82ER2, D110N/F113L/P3H/S24T); test: biochemical; conditions: pH 8, read-out: reduction of activity of the BAAT-3-HP dehydrogenase system
BAAT-3-HP dehydrogenase system: Streptomyces avermitilis BAAT variant BAAT5-9 (P3H, S24T, D110N, F113L, A133T), SEQ ID NO: 19, coupled with P. putida 3-HP dehydrogenase (PpmmsB31), SEQ ID NO: 27, sequence (Q82ER2 entry or part of it D110N/F113L/P3H/S24T): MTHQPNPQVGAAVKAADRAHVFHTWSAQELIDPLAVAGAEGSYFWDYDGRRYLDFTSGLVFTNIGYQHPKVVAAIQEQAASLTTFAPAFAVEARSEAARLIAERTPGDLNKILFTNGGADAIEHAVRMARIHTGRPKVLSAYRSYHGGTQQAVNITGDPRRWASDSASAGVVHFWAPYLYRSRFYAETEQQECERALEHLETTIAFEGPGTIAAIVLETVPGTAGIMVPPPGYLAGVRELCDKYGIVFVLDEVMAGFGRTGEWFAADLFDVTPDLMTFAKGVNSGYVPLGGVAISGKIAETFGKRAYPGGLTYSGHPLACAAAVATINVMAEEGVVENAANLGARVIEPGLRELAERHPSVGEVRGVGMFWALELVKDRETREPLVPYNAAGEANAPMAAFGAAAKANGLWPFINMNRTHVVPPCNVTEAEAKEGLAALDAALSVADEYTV
Method: The effect of acetate on the in vitro biological activity of BAAT enzymes in cell extracts was also measured using a coupled assay in which the malonyl semialdehyde product of the reaction catalyzed by BAAT was reduced by a 3-HP dehydrogenase. An extract of cells carrying the integrated BAAT5-9/PpmmsB31 was made by resuspending cells collected by centrifugation with Bugbuster (EMD/Novagen, Madison Wis.) as described by the manufacturer. […] The progress of the reaction was monitored as the decrease in A340 due to oxidation of the NADH. The effect of acetate or pyruvate was determined by adding up to 20 mM of either compound (as the neutral Na^+ salt).

[2] = test system: BAAT (BAAT5-9) in E. coli 11303 Δpta ΔadhE ΔfrdABCD ΔldhA Δpan(C-D) ΔpoxB INT(BAAT5-9/PpmmsB31) carrying pCEC/SapanD; test: microbe, parasite or virus in culture; conditions: for inhibition at 20000 µM / inhibition at 100000 µM: Escherichia coli
Method: A culture of E. coli 11303 Δpta ΔadhE ΔfrdABCD ΔldhA Δpan(C-D) ΔpoxB INT(BAAT5-9/PpmmsB31) carrying the vector pCEC/SapanD was grown in LB media with chloramphenicol at 30° C. This culture was used to inoculate 20 mL modified Overnight Express media (Novagen) to an initial OD600 of 0.05 in a 125 mL flask. Modification to the media included the replacement of Solution 1 with glucose at a concentration of 0.1% and arabinose at 2%, and addition of 20 uM Ca^2+ pantothenate, 25 ug/mL chloramphenicol, 100 uM pyridoxine-HCl and 1 mM IPTG. […] Glucose biotransformation medium consisted of M9 salts, 100 mM MOPS pH 8, 1% glucose, 500 uM IPTG, and 50 uM pyridoxine-HCl.
For aerobic biotransformations, 900 uL of the resuspended culture was aliquoted to a 14 mL Falcon tube and the volume was brought to 1 mL with water and/or sodium acetate (pH 7). For anaerobic biotransformations, 1.35 mL of the resuspended culture was aliquoted to a 1.8 mL glass vial and the volume was brought to 1.5 mL with water and/or sodium acetate(pH 7). Final concentrations of sodium acetate added were 0, 20 mM, and 100 mM, and biotransformation incubations were at 30° C. with shaking at 225 rpm. […] Culture supernatants were acidified with 0.05 volumes of 90% formic acid, centrifuged, filtered, and analyzed for 3-HP production as described in Example 8.

O=CCC(=O)O = test: purified protein, by the assay type; conditions: other: purified enzyme; NADH is the preferred reductant
[3] = substrate: NCCC(=O)O; test: purified protein, by the assay type; assay type: biochemical, Streptomyces avermitilis; conditions: other: pH 8.0, 10 mM alpha-ketoglutarate, 25° C.
Method: Incubations were carried out at 25° C., and aliquots of 0.05 mL were removed at intervals of 30 seconds and added to 0.15 mL of reaction quench buffer (50% formic acid/50% 50 mM HEPPS pH 8). L-glutamate was determined by high-pressure ion exchange chromatography on an AMINOSep-511 column (Transgenomic) developed using mobile phases of pH 3.28 and pH 7.48 buffers from Pickering, followed by post-column derivatization with O-phthalaldehyde and fluorometric detection.

[4] = substrate: NCCC(=O)O; test: purified protein, by the assay type; conditions: other: pH 8.0, 10 mM alpha-ketoglutarate, 25° C.
[5] = substrate: O=CCC(=O)O; test: ydfG dehydrogenase kinetics, purified enzyme; assay type: biochemical, E. coli; conditions: other: purified enzyme; NADPH is the only cofactor used; 58.0 °C
Method: The ydfG gene was cloned into the pET28b vector (Novagen, Madison, Wis.) to allow purification and kinetic studies on purified protein. The primers used for this cloning had restriction sites added to allow cloning into NdeI and BamHI sites. […] (SEQ ID NO: 32) and […] (SEQ ID NO: 33). Fragment amplification was performed using Pfu DNA polymerase to minimize amplification errors, and used an annealing temperature of 58° C. A PCR product band of approximately 750 bp was gel-purified, digested with NdeI and BamHI, and ligated, using an NEB Quick Ligation method (New England BioLabs, Waverly Mass.), into pET28B vector that had been digested with the same enzymes. The ligation reaction was transformed into E. coli Electromax™ DH10B™ cells and plated on LB medium containing 25 μg/ml kanamycin. Plasmid DNA from a colony showing the correct insert size was sequenced and shown to be identical to the ydfG sequence from E. coli MG1655.

[6] = read-out: reduction in 3-HP from beta-alanine
[7] = read-out: reduction in 3-HP from glucose

CC(=O)O [acetate]
inhibition at 10000 µM [1]: ~50% | inhibition at 20000 µM [2, 6]: 22% | inhibition at 100000 µM [2, 6]: 47% | inhibition at 20000 µM [2, 7]: 28% | inhibition at 100000 µM [2, 7]: 52% | reduction in 3-HP ([2]; anaerobic conditions, acetate added (20 mM and 100 mM)): 8-29%

CC(=O)C(=O)O [pyruvate]
inhibition at 10000 µM [1]: ~50%

Pseudomonas aeruginosa 3-HP dehydrogenase (PammsB), SEQ ID NO: 21 (Pseudomonas aeruginosa PAO1)
Km (O=CCC(=O)O): 4.5 mM

B1: Streptomyces avermitilis BAAT variant BAAT3ML (P3H, S24T, F113L, A133T), SEQ ID NO: 17 (Streptomyces avermitilis MA-4680 = NBRC 14893; F113L/P3H/S24T) (protein)
chain: MTHQPNPQVGAAVKAADRAHVFHTWSAQELIDPLAVAGAEGSYFWDYDGRRYLDFTSGLVFTNIGYQHPKVVAAIQEQAASLTTFAPAFAVEARSEAARLIAERTPGDLDKILFTNGGADAIEHAVRMARIHTGRPKVLSAYRSYHGGTQQAVNITGDPRRWASDSASAGVVHFWAPYLYRSRFYAETEQQECERALEHLETTIAFEGPGTIAAIVLETVPGTAGIMVPPPGYLAGVRELCDKYGIVFVLDEVMAGFGRTGEWFAADLFDVTPDLMTFAKGVNSGYVPLGGVAISGKIAETFGKRAYPGGLTYSGHPLACAAAVATINVMAEEGVVENAANLGARVIEPGLRELAERHPSVGEVRGVGMFWALELVKDRETREPLVPYNAAGEANAPMAAFGAAAKANGLWPFINMNRTHVVPPCNVTEAEAKEGLAALDAALSVADEYTV
Km [3]: 21 mM

B2: Streptomyces avermitilis BAAT variant BAAT1 (S24T), SEQ ID NO: 6 (Streptomyces avermitilis MA-4680 = NBRC 14893; S24T) (protein)
chain: B1 chain with H3P, L113F, T133A
Km [3]: 7.3 mM

B3: Streptomyces avermitilis beta-alanine/alpha-ketoglutarate aminotransferase (BAAT), wild type, SEQ ID NO: 4 (Streptomyces avermitilis MA-4680 = NBRC 14893) (protein)
chain: B1 chain with H3P, T24S, L113F, T133A
Km [4]: 2.5 mM

B4: Streptomyces avermitilis BAAT variant BAAT3 (S24T, F113L, A133T), SEQ ID NO: 12 (Streptomyces avermitilis MA-4680 = NBRC 14893; F113L/S24T) (protein)
chain: B1 chain with H3P
Km [3]: 14.7 mM

B5: Streptomyces avermitilis BAAT variant BAAT5-9 (P3H, S24T, D110N, F113L, A133T), SEQ ID NO: 19 (Streptomyces avermitilis MA-4680 = NBRC 14893; … (protein)
chain: B1 chain with D110N
Km [3]: 25 mM

B6: E. coli ydfG protein, SEQ ID NO: 31 (Escherichia coli K-12) (protein)
chain: MIVLVTGATAGFGECITRRFIQQGHKVIATGRRQERLQELKDELGDNLYIAQLDVRNRAAIEEMLASLPAEWCNIDILVNNAGLALGMEPAHKASVEDWETMIDTNNKGLVYMTRAVLPGMVERNHGHIINIGSTAGSWPYAGGNVYGATKAFVRQFSLNLRTDLHGTAVRVTDIEPGLVGGTEFSNVRFKGDDGKAEKTYQNTVALTPEDVSEAVWWVSTLPAHVNINTLEMMPVTQSYAGLNVHRQ
Km [5]: 3.7 mM

— patent US8889391B1 (Cargill, Incorporated, priority 2006, dated 2014)
